Measured values published in EP2955182A1, “Pyridazinones for the treatment of cancer” (Max-Planck-Gesellschaft zur Förderung der Wissenschaften …, priority 2014, dated 2015).

target: PDEδ (Homo sapiens, UniProt O43924); assay: Fluorescence polarization competition binding assay (displacement titration of labeled Atorvastatin-probe); conditions: not given
Description: Example C.2: Displacement titrations of labeled Atorvastatin-probe for the determination of KD values:
Table 3. KD values for compounds of general formula (I) as determined by means of fluorescence polarization assay

| SMILES | Kd |
| --- | --- |
| Cc1ccc(-n2nc3c(=O)n(CCCC(=O)NCc4ccccc4)nc(C)c3c2C)cc1 [Compound 42] | < 30 nM |

same assay, conditions: fluorescence polarization assay, displacement of fluorescent-tagged Atorvastatin analog from PDEδ; read-out: KD

| Kd | SMILES |
| --- | --- |
| < 30 nM | Cc1nn(CCCC(=O)NCCc2ccccc2)c(=O)c2nn(-c3ccccc3)c(C)c12 [Compound 36, 4-(3,4-dimethyl-7-oxo-2-phenyl-2H-pyrazolo[3,4-d]pyridazin-6(7H)-yl)-N-phenethylbutanamide] |
| < 30 nM | Cc1ccc(CCNC(=O)CCCn2nc(C)c3c(C)n(-c4ccccc4)nc3c2=O)cc1 [Compound 37, 4-(3,4-dimethyl-7-oxo-2-phenyl-2H-pyrazolo[3,4-d]pyridazin-6(7H)-yl)-N-(4-methylphenethyl)butanamide] |
| 30 to 100 nM | Cc1ccc(-n2nc3c(=O)n(CCCC(=O)NCc4ccco4)nc(C)c3c2C)cc1 [Compound 38, 4-(3,4-dimethyl-7-oxo-2-(p-tolyl)-2H-pyrazolo[3,4-d]pyridazin-6(7H)-yl)-N-(furan-2-ylmethyl)butanamide] |
| 30 to 100 nM | Cc1ccc(-n2nc3c(=O)n(CCCC(=O)NCC4CCCO4)nc(C)c3c2C)cc1 (centres unmarked) [Compound 39, 4-(3,4-dimethyl-7-oxo-2-(p-tolyl)-2H-pyrazolo[3,4-d]pyridazin-6(7H)-yl)-N-((tetrahydrofuran-2-yl)methyl)butanamide] |
| 100 to 1000 nM | Cc1ccc(-n2nc3c(=O)n(CCCC(=O)NCc4ccccn4)nc(C)c3c2C)cc1 [Compound 40, 4-(3,4-dimethyl-7-oxo-2-(p-tolyl)-2H-pyrazolo[3,4-d]pyridazin-6(7H)-yl)-N-(pyridin-2-ylmethyl)butanamide] |
| 100 to 1000 nM | Cc1ccc(-n2nc3c(=O)n(CCCC(=O)NCc4cccnc4)nc(C)c3c2C)cc1 [Compound 41, 4-(3,4-dimethyl-7-oxo-2-(p-tolyl)-2H-pyrazolo[3,4-d]pyridazin-6(7H)-yl)-N-(pyridin-3-ylmethyl)butanamide] |
| < 30 nM | COc1ccc(CNC(=O)CCCn2nc(C)c3c(C)n(-c4ccc(C)cc4)nc3c2=O)cc1 [Compound 43, 4-(3,4-dimethyl-7-oxo-2-(p-tolyl)-2H-pyrazolo[3,4-d]pyridazin-6(7H)-yl)-N-(4-methoxybenzyl)butanamide] |
| < 30 nM | Cc1ccc(CNC(=O)CCCn2nc(C)c3c(C)n(-c4ccc(C)cc4)nc3c2=O)cc1 [Compound 44, 4-(3,4-dimethyl-7-oxo-2-(p-tolyl)-2H-pyrazolo[3,4-d]pyridazin-6(7H)-yl)-N-(4-methylbenzyl)butanamide] |
| < 30 nM | Cc1ccc(-n2nc3c(=O)n(CCCC(=O)NCc4ccc(OC(C)C)cc4)nc(C)c3c2C)cc1 [Compound 45] |
| < 30 nM | Cc1ccc(-n2nc3c(=O)n(CCCC(=O)NCCc4ccccc4)nc(C)c3c2C)cc1 [Compound 46, 4-(3,4-dimethyl-7-oxo-2-(p-tolyl)-2H-pyrazolo[3,4-d]pyridazin-6(7H)-yl)-N-phenethylbutanamide] |
| < 30 nM | Cc1ccc(CCNC(=O)CCCn2nc(C)c3c(C)n(-c4ccc(C)cc4)nc3c2=O)cc1 [Compound 47, 4-(3,4-dimethyl-7-oxo-2-(p-tolyl)-2H-pyrazolo[3,4-d]pyridazin-6(7H)-yl)-N-(4-methylphenethyl)butanamide] |
| < 30 nM | Cc1ccc(-n2nc3c(=O)n(CCCC(=O)NCCc4ccc(Cl)cc4)nc(C)c3c2C)cc1 [Compound 48, N-(4-chlorophenethyl)-4-(3,4-dimethyl-7-oxo-2-(p-tolyl)-2H-pyrazolo[3,4-d]pyridazin-6(7H)-yl)butanamide] |
| < 30 nM | Cc1ccc(-n2nc3c(=O)n(CCCC(=O)NCCc4cccc(Cl)c4)nc(C)c3c2C)cc1 [Compound 49, N-(3-chlorophenethyl)-4-(3,4-dimethyl-7-oxo-2-(p-tolyl)-2H-pyrazolo[3,4-d]pyridazin-6(7H)-yl)butanamide] |
| 100 to 1000 nM | Cc1ccc(-n2nc3c(=O)n(CCCC(=O)NC4CC4)nc(C)c3c2C)cc1 [Compound 51, N-cyclopropyl-4-(3,4-dimethyl-7-oxo-2-(p-tolyl)-2H-pyrazolo[3,4-d]pyridazin-6(7H)-yl)butanamide] |
| < 30 nM | Cc1ccc(-n2nc3c(=O)n(CCCC(=O)NC4CCCC4)nc(C)c3c2C)cc1 [Compound 52, N-cyclopentyl-4-(3,4-dimethyl-7-oxo-2-(p-tolyl)-2H-pyrazolo[3,4-d]pyridazin-6(7H)-yl)butanamide] |
| < 30 nM | Cc1ccc(-n2nc3c(=O)n(CCCC(=O)NC4CCC(C)CC4)nc(C)c3c2C)cc1 (centres unmarked) [Compound 53, 4-(3,4-dimethyl-7-oxo-2-(p-tolyl)-2H-pyrazolo[3,4-d]pyridazin-6(7H)-yl)-N-(4-methylcyclohexyl)butanamide] |

tested on: BxPC-3; assay: Real time cell analysis (RTCA) impedance proliferation measurement; type: cell-based; conditions: administered 24 hours after seeding, monitored up to 100 hours

| SMILES | proliferation of K-Ras dependent cells |
| --- | --- |
| Cc1ccc(-n2nc3c(=O)n(CCCC(=O)NCC(C)c4ccccc4)nc(C)c3c2C)cc1 (centres unmarked) [Compound 50, 4-(3,4-dimethyl-7-oxo-2-(p-tolyl)-2H-pyrazolo[3,4-d]pyridazin-6(7H)-yl)-N-(2-phenylpropyl)butanamide] | inhibits the proliferation |

tested on: Panc-Tu-I; assay: as above; conditions: Panc-Tu-I (Figure 6f); after a certain time

| SMILES | cell death |
| --- | --- |
| Cc1ccc(-n2nc3c(=O)n(CCCC(=O)NCC(C)c4ccccc4)nc(C)c3c2C)cc1 (centres unmarked) [Compound 50, 4-(3,4-dimethyl-7-oxo-2-(p-tolyl)-2H-pyrazolo[3,4-d]pyridazin-6(7H)-yl)-N-(2-phenylpropyl)butanamide] | leading after a certain time to cell death |

same assay, conditions: Panc-Tu-I; administered 24 hours after seeding; monitored up to 100 hours

| SMILES | proliferation of K-Ras dependent cells |
| --- | --- |
| Cc1ccc(-n2nc3c(=O)n(CCCC(=O)NCC(C)c4ccccc4)nc(C)c3c2C)cc1 (centres unmarked) [Compound 50, 4-(3,4-dimethyl-7-oxo-2-(p-tolyl)-2H-pyrazolo[3,4-d]pyridazin-6(7H)-yl)-N-(2-phenylpropyl)butanamide] | inhibits the proliferation |
